Data as given in patent EP0066415A2, “N-(arylthioalkyl)-N'-(aminoalkyl)ureas” (A.H. ROBINS COMPANY, INCORPORATED, priority 1981, dated 1982).

Key:
[1] = tested on: Ouabain Induced Arrhythmias; experiment: Ouabain induced arrhythmias, correction by i.v. infusion; type: in vivo, adult mongrel dogs; settings: Ouabain-Induced arrhythmia, dogs under barbiturate anesthesia, infusion into femoral vein at 1 mg/kg/min
Description: correction of existing cardiac arrhythmias of ventri- cular origin was carried out on (1) adult mongrel dogs which were under barbiturate anesthesia during the test. A Grass Model 7 polygraph was used for recording femoral arterial blood pressure (Statham P23AC transducer) and the electrocardiogram (Grass 7P4 preamplifier). Ouabain was given intravenously in an initial dose of 40 µg/kg and in a second dose of […] 30 minutes after the first dose and in subsequent doses of 10 µg/kg which were repeated at 1.5 min. intervals as required for producing cardiac arrhythmias that persisted for at least 15 minutes. When the arrhythmias were established, the test compounds were administered by infusion (Harvard Model 942 Infusion Pump) into a femoral vein at a rate of 1 mg/kg/min. Concentration of compound was adjusted according to the weight of the dog to allow a volume infusion of 1 ml/min. The compound was considered to be active as an antiarrhythmic agent if reversion to the sinus rhythm occurred and this was maintained for at least 30 min.

[2] = tested on: Coronary Artery Ligation Induced Arrhythmias; experiment: Coronary artery ligation induced arrhythmias; type: in vivo, Adult mongrel dogs; settings: I.V.; Coronary Artery Ligation Induced arrhythmia; conscious dogs; infusion into saphenous vein at 0.5 mg/kg/min
Description: Adult mongrel dogs which were in the conscious state were used for the test and cardiac arrhythmias were induced by prior (22-24 hr) surgical preparation in which blood flow through a coronary artery was occluded by use of a constrictor device as reported by Smith et al, 1973. A Grass Model 79 polygraph was used for recording the electrocardiogram (Grass 7P4 preamplifier).
The test compound was administered by infusion (Harvard Model 942 Infusion Pump) into a sapheneous vein to one group of dogs at a rate of 0.5 mg/kg/min. Concentration of compound was adjusted according to the weight of the dog to allow a volume of infusion of 0.5 ml/min. The test compound was administered orally by gavage to another group of dogs at dose levels of 10 to 40 mg/kg. The test compound was prepared in distilled water to give a total volume of 20 ml. Following the administration of the test compound, the heart rate, number of ectopic cardiac beats per min, and the percent ectopic beats (ectopic beats/BR X100) were recorded at 15 min. intervals. The compound was considered active if it abolished the ectopic ventricular frequency and caused a return to normal sinus rhythm within 2 hours of administration.

For “N'-[2-(Diethylamino)ethyl]-N-(1-methylethyl)-N[2-(phenylsulphonyl)ethyl]urea maleate[1:1] [Example 9]”, the “Correcting Dose Range” value [1] was 4 to 15 mg/kg and the “Correcting Dose Range” value [2] was 2 to 5 mg/kg.
